Experimental data from ChEMBL document CHEMBL6127067, “Discovery, Biosynthesis, and Characterization of Rodencin, a Two-Component Lanthipeptide, Harboring d-Amino Acids Introduced by the Unusual Dehydrogenase RodJA” (J Nat Prod, 2024).
The source made the active and inactive calls. The rule behind the calls is not given here.

Experiments:
[1] = tested on: Salmonella enterica; assay: Antimicrobial activity against Salmonella enterica LMG 07233 assessed as absence of visible growth measured after 20 hrs by broth dilution assay; type: functional, organism-based
[2] = tested on: Listeria monocytogenes; assay: Antimicrobial activity against Listeria monocytogenes LMG 10470 assessed as absence of visible growth measured after 20 hrs by broth dilution assay; type: functional, organism-based
[3] = tested on: Listeria monocytogenes; assay: Antimicrobial activity against Listeria monocytogenes LMG 10470 assessed as absence of visible growth in presence of Rod-beta measured after 20 hrs by broth dilution assay; type: functional, organism-based
[4] = tested on: Escherichia coli; assay: Antimicrobial activity against Escherichia coli LMG 8223 assessed as absence of visible growth measured after 20 hrs by broth dilution assay; type: functional, organism-based
[5] = tested on: Staphylococcus aureus; assay: Antimicrobial activity against Staphylococcus aureus LMG 8224 assessed as absence of visible growth measured after 20 hrs by broth dilution assay; type: functional, organism-based
[6] = tested on: Cell membrane; assay: Induction of inner membrane permeability in Micrococcus flavus NIZO B423 using DNA-binding stain propidium iodide by membrane integrity assay; type: subcellular
[7] = tested on: Cell membrane; assay: Induction of inner membrane permeability in Micrococcus flavus NIZO B423 using DNA-binding stain propidium iodide in presence of Rod beta by membrane integrity assay
[8] = tested on: Enterococcus faecium; assay: Antimicrobial activity against Enterococcus faecium LMG 16003 assessed as absence of visible growth in presence of Rod-beta measured after 20 hrs by broth dilution assay; type: functional, organism-based
[9] = tested on: Bacillus cereus; assay: Antimicrobial activity against Bacillus cereus ATCC14579 assessed as absence of visible growth measured after 20 hrs by broth dilution assay; type: functional, organism-based
[10] = tested on: Lactococcus lactis; assay: Antimicrobial activity against Lactococcus lactis NZ9000 assessed as absence of visible growth measured after 20 hrs by broth dilution assay; type: functional, organism-based
[11] = tested on: Cell membrane; assay: Induction of outer membrane permeability in Escherichia coli using 1-N-Nphenylnaphthylamine fluorescent probe in presence of Rod beta by microplate reader; type: subcellular
[12] = tested on: Staphylococcus aureus; assay: Antimicrobial activity against methicillin-resistant Staphylococcus aureus assessed as absence of visible growth in presence of Rod-beta measured after 20 hrs by broth dilution assay; type: functional, organism-based
[13] = tested on: Enterococcus faecium; assay: Antimicrobial activity against Enterococcus faecium LMG 16003 assessed as absence of visible growth measured after 20 hrs by broth dilution assay; type: functional, organism-based
[14] = Binding affinity to externally added Lipid II (unknown origin) in Micrococcus flavus NIZO B423 broth assessed as decrease in antimicrobial activity against Micrococcus flavus by Spot-on-lawn assay
[15] = tested on: Bacillus cereus; assay: Antimicrobial activity against Bacillus cereus ATCC14579 assessed as absence of visible growth in presence of Rod-beta measured after 20 hrs by broth dilution assay; type: functional, organism-based
[16] = tested on: Micrococcus flavus; assay: Antimicrobial activity against Micrococcus flavus NIZO B423 assessed as absence of visible growth measured after 20 hrs by broth dilution assay; type: functional, organism-based
[17] = tested on: Staphylococcus aureus; assay: Antimicrobial activity against Staphylococcus aureus LMG 15975 assessed as absence of visible growth measured after 20 hrs by broth dilution assay; type: functional, organism-based
[18] = tested on: Cell membrane; assay: Induction of outer membrane permeability in Escherichia coli using 1-N-Nphenylnaphthylamine fluorescent probe by microplate reader; type: subcellular
[19] = tested on: Bacillus subtilis; assay: Antimicrobial activity against Bacillus subtilis 168 assessed as absence of visible growth measured after 20 hrs by broth dilution assay; type: functional, organism-based
[20] = tested on: Enterococcus faecium; assay: Antimicrobial activity against Enterococcus faecium LMG 16003 assessed as absence of visible growth in presence of Rod-alpha measured after 20 hrs by broth dilution assay; type: functional, organism-based
[21] = tested on: Cell membrane; assay: Induction of inner membrane permeability in Micrococcus flavus NIZO B423 using DNA-binding stain propidium iodide in presence of Rod alpha by membrane integrity assay
[22] = tested on: Staphylococcus aureus; assay: Antimicrobial activity against methicillin-resistant Staphylococcus aureus assessed as absence of visible growth in presence of Rod-alpha measured after 20 hrs by broth dilution assay; type: functional, organism-based
[23] = tested on: Listeria monocytogenes; assay: Antimicrobial activity against Listeria monocytogenes LMG 10470 assessed as absence of visible growth in presence of Rod-alpha measured after 20 hrs by broth dilution assay; type: functional, organism-based
[24] = tested on: Bacillus cereus; assay: Antimicrobial activity against Bacillus cereus ATCC14579 assessed as absence of visible growth in presence of Rod-alpha measured after 20 hrs by broth dilution assay; type: functional, organism-based
[25] = tested on: Cell membrane; assay: Induction of outer membrane permeability in Escherichia coli using 1-N-Nphenylnaphthylamine fluorescent probe in presence of Rod alpha by microplate reader; type: subcellular

SMILES	Activity [1]	Activity [2]	Activity [4]	Activity [5]	Activity [6]	Activity [9]	Activity [10]	Activity [13]	Activity [16]	Activity [17]	Activity [18]	Activity [19]	further results
C/C=C(\NC(=O)[C@H](CC(N)=O)NC(=O)/C(=C/C)NC(=O)[C@@H]1CCSC[C@@H](N)C(=O)N1)C(=O)N[C@@H](Cc1ccccc1)C(=O)N[C@H](C)C(=O)N[C@@H](CC(C)C)C(=O)N[C@@H]1CSC[C@H](C(=O)N[C@H]2CCSC[C@H]3NC(=O)[C@H](CCC(=O)O)NC(=O)[C@H](CCCCN)NC(=O)[C@@H](CSC[C@H](C(=O)O)NC(=O)[C@H](Cc4c[nH]c5ccccc45)NC(=O)[C@H](C)NC(=O)[C@H](CCSC)NC3=O)NC(=O)[C@H](C(C)C)NC2=O)NC(=O)[C@H](Cc2c[nH]c3ccccc23)NC(=O)CNC(=O)CNC(=O)[C@H](CCCCN)NC(=O)[C@H](CC(N)=O)NC(=O)CNC(=O)[C@H](Cc2c[nH]c3ccccc23)NC(=O)[C@H](Cc2ccc(O)cc2)NC(=O)[C@H](CC(=O)O)NC1=O	inactive	inactive	inactive	inactive	inactive	inactive	inactive	inactive	inactive	inactive	inactive	inactive	Activity [3]: Active; Activity [7]: Active; Activity [8]: Active; Activity [11]: Active; Activity [12]: Active; Activity [14]: Active; Activity [15]: Active
C/C=C(/NC(=O)[C@@H](N)Cc1c[nH]c2ccccc12)C(=O)N1CCC[C@H]1C(=O)N[C@@H](C)C(=O)N[C@@H](CC(C)C)C(=O)N[C@H](C)C(=O)N[C@H](C(=O)N[C@H](C(=O)N[C@H](CC)C(=O)NCC(=O)N[C@@H](Cc1ccc(O)cc1)C(=O)N[C@H](C(=O)N[C@@H]1CSC[C@H](C(=O)N2CCC[C@H]2C(=O)N[C@H]2CCSC[C@H](C(=O)N[C@H]3CCSC[C@H](C(=O)O)NC(=O)[C@H](C)NC(=O)[C@H](CCCNC(=N)N)NC3=O)NC(=O)[C@H](C)NC(=O)[C@H]([C@@H](C)O)NC2=O)NC(=O)[C@H]([C@@H](C)O)NC(=O)[C@H](CC(N)=O)NC(=O)[C@H](CO)NC1=O)[C@@H](C)CC)[C@@H](C)CC)C(C)C	inactive	inactive	inactive	inactive	inactive	inactive	inactive	inactive	inactive	inactive	inactive	inactive	Activity [20]: Active; Activity [21]: Active; Activity [22]: Active; Activity [23]: Active; Activity [24]: Active; Activity [25]: Active
